These results are taken from patent publication EP1620056B1, “TUMOR CYTOTOXICITY INDUCED BY MODULATORS OF THE CXCR4 RECEPTOR” (Morehouse School of Medicine, priority 2003, dated 2004).

Assay [1] relates to epithelial tumor cell lines. The assay can be described thus: Apoptotic assay of Gp 120 and Nef peptides. It counts as cell-based, human. Particulars: peptide sequences within Nef or Gp 120. From the text:
The nef protein was expressed and purified in the inventors' laboratory. overlapping 20 mer peptides encompassing the entire nef protein and overlapping 15 mer peptides encompassing the entire Gp 120 protein were obtained from the NIH AIDS Research & Reference Reagent Program (McKesson HBC Bio-Services, MD) Other specific peptides designed from within Gp 120 or nef were obtained from SigmaGenosys.
Apoptosis generates DNA free ends which can be labeled in situ using terminal deoxynucleotidyl-transferase (TdT), incorporating an exogenously added labeled nucleotide to the DNA strand. This label can then be visualized directly by fluorescence or indirectly using anti-FITC-peroxidase, and a colorimetric assay. Cells on coverslips were washed with PBS, and fixed for 30 minutes at RT with 4% paraformaldehyde, in PBS, pH 7.4. They were then washed with PBS, and permeabilized with 0.1% Triton X-100 for 10 minutes at room temperature (RT). The slides were rinsed twice with PBS, and air dried for 2 minutes. The manufacturer's procedure for TUNEL staining the slides was followed (manufacturer's procedure for the In Situ Cell Death Detection Kit, AP; Boehringer Mannheim, Indianapolis, IN). Total cell counts were determined by counterstaining fixed cultures with 20 µg/ml of Hoechst 33258. […]

Assay [2] has as its system MDA-MB231, MCF7, and DU4475. The assay can be described thus: Agarose gel electrophoresis / DNA fragmentation (DNA laddering) in CXCR4-expressing lines. In kind it is cell-based, human. Particulars: positive control, 10 mM (6.35 mg/ml), 24 hours, compared to untreated cultures. Here is the method:
Untreated or treated cells were collected, and DNA was harvested from normal or cancer cell cultures. Briefly, the cells were washed with PBS, pelleted at 1600 g for 20 minutes at 4°C, and resuspended in 50 mM Tris-HCl, pH 7.5, 20 mM EDTA buffer at about 10^7 cells/ml. The cells were then treated 2x with lysis buffer: 1.0% NP-40 (Sigma, St. Louis, MO) in the same Tris/EDTA buffer at RT for 2 minutes followed by centrifugation at 1600 g for 5 minutes. After the last spin, SDS was added to the supernatant to 1% final concentration, RNase A (Sigma, St. Louis, MO) was added to 5 mg/ml final concentration, and the solution incubated at 56°C for 2 hours. Subsequently, protease K (Promega, Madison, WI) was added to the solution to 2.5 µg/ml and incubated at 37°C for 2.5 hr. Ammonium acetate was added to 4 M final concentration, 0.7 volumes of isopropanol was added, the solution was put at -20°C overnight followed by centrifugation at 14,000 rpm for 30 minutes. The pellets were washed twice with 70% ethanol, dried and resuspended in 10 mM Tris-HCl, pH 7.5, 1 mM EDTA. DNA samples, 18 µg per condition, were prepared in neutral loading buffer to a final concentration of 0.02% bromophenol blue, 5% glycerol, 0.1% SDS, and 50 µg of ethidium bromide, loaded onto a neutral agarose gel (1.7%), and run at 50V for 2.5 hours. […]

With ALAETCONAWA, the “apoptotic properties of the sequence” value in assay [1] is reported as “lost all apoptotic effects”.

Consider ceramide, for which, in assay [2], the DNA laddering result is “DNA laddering characteristic of apoptotic cells was observed”.
